This note sets out measurements from ChEMBL document CHEMBL1155295, “Benzo[c][2,7]naphthyridines as inhibitors of PDK-1” (Bioorg Med Chem Lett, 2009).

SMILES strings stand for the structures.

This assay addresses T1, 3-phosphoinositide-dependent protein kinase 1 (Homo sapiens, UniProt O15530).
T1 sequence (O15530 whole entry): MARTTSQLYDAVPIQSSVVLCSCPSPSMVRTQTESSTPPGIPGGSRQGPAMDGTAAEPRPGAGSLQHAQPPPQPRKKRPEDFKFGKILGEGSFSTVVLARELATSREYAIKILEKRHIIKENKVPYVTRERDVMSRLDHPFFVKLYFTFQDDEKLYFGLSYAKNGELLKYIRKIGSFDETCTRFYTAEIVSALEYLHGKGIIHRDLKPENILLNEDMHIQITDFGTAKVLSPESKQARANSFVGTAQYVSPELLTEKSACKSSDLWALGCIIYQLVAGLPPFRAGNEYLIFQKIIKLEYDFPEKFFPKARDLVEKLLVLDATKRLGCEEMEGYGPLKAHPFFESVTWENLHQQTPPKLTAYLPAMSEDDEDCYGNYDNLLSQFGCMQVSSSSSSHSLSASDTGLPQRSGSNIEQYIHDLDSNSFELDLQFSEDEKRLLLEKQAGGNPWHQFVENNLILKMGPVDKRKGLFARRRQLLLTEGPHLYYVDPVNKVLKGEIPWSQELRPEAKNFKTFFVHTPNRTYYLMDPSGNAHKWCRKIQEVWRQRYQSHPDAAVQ
In words: Inhibition of PDPK1 by ELISA assay.
Usually IC50 stands for the midpoint of a concentration-inhibition curve. The low end stands for inhibition by little substance, the high end for a need for much substance. In turn, `COc1cc2ncc3c(N)nc(-c4ccc(N)nc4)cc3c2cc1OC` registered an IC50 of over 1000 nM.

`COc1cc2ncc3c(N)nc(-c4cncc(N)c4)cc3c2cc1OC`: the IC50 is 26 nM.

In turn, `COc1cc2ncc3c(N)nc(-c4cncc(Nc5ccccc5F)c4)cc3c2cc1OC` showed an IC50 of 30 nM.

Consider `COc1cc2ncc3c(N)nc(-c4ccccn4)cc3c2cc1OC`, for which the IC50 is over 100 nM.

The compound `COc1cc2c(cc1OCc1ccccc1)ncc1c(N)nc(-c3cccnc3)cc12` registered an IC50 of 146 nM.

`COc1cc2ncc3c(N)nc(-c4cccnc4)cc3c2cc1OC` yielded an IC50 of 35 nM.

`COc1cc2c(cc1OCCCN1CCCCC1)ncc1c(N)nc(-c3cccnc3)cc12` had an IC50 of 144 nM.

In turn, `COc1cc2ncc3c(N)nc(-c4cncc(Nc5ccccc5OCc5ccccc5)c4)cc3c2cc1OC` returned an IC50 of over 1000 nM.

Consider `COc1cc2ncc3c(N)nc(-n4ccnc4)cc3c2cc1OC`, for which the half-inhibitory concentration (IC50) was 100 nM.

`COc1cc2ncc3c(N)nc(-c4cncc(Br)c4)cc3c2cc1OC`: the IC50 was determined as 65 nM.

Turning to `COc1cc2ncc3c(N)nc(-c4ccoc4)cc3c2cc1OC`, the IC50 is over 1000 nM.
